# Experimental data published in patent EP0595557A1, “New substituted azetidinones as anti-inflammatory and antidegenerative agents” (MERCK & CO. INC., priority 1992, dated 1994).
# Molecular target: T1, Human Polymorphonuclear Leukocyte Elastase (Homo sapiens, UniProt P08246)
# T1 construct: Crude extract of human polymorphonuclear leukocytes (PMN) containing elastase activity; from tissue; host or cells: human polymorphonuclear leukocytes (crude extract)
# T1 sequence (P08246 30-267): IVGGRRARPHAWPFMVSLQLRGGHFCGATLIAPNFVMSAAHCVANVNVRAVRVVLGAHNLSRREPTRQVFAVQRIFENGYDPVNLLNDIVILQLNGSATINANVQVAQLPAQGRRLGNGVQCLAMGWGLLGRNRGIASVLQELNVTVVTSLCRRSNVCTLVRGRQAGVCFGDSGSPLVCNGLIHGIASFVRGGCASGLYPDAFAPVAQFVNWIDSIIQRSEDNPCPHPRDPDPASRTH
# Assay: Enzyme assay for inhibition of human polymorphonuclear leukocyte elastase via hydrolysis of Boc-AAPAN or Boc-AAPVN
# Type: biochemical
# Conditions: expressed to the nearest thousand; for kinact/KI: pH 7.5, second order rate constant for inactivation of the enzyme, read-out: Kobs/[I]
# Outline: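 Crude human PMN extract as enzyme source, with 0.2 mM Boc-AAPAN in 0.05M TES buffer pH 7.5. Inhibitors in DMSO were added to substrate before the extract, and rate was followed as ΔOD/min at 410 mµ. Values are kobs/I, the second-order inactivation rate constant (per mole per second).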
Compound,kinact/KI [M⁻¹ s⁻¹],"Kobs/[I] (second order rate constant for inactivation of the enzyme, pH 7.5)"
CCC[C@@H](NC(=O)N1C(=O)C(CC)(CC)[C@@H]1Oc1ccc(CC(=O)N(CC)CC)cc1)c1ccc(C)c(C(=O)N(CCC)CCC)c1 [Compound 293],457000,
CCC[C@@H](NC(=O)N1C(=O)C(CC)(CC)[C@@H]1Oc1ccc(CC(=O)N2CCOCC2)cc1)c1ccc(C)c(C(=O)N(CCC)CCC)c1 [Compound 294],255000,
CCC[C@@H](NC(=O)N1C(=O)C(CC)(CC)[C@@H]1Oc1ccc(C(=O)N(C)CCN(C)C)cc1)c1ccc(C#N)cc1 [Compound 295],846000,
CCC[C@@H](NC(=O)N1C(=O)C(CC)(CC)[C@@H]1Oc1ccc(C(=O)N(C)CCN(C)Cc2ccccc2)cc1)c1ccc(OCC)cc1 [Compound 296],776000,
CCC[C@@H](NC(=O)N1C(=O)C(CC)(CC)[C@@H]1Oc1ccc(C(=O)N2CCN(C)CC2)cc1)c1ccc(OC)cc1 [Compound 298],1.84e+06,
CCC[C@@H](NC(=O)N1C(=O)C(CC)(CC)[C@@H]1Oc1ccc(C(=O)N(C)CCN(C)C)cc1)c1ccc(Cl)cc1 [Compound 299],1.48e+06,
CCC[C@@H](NC(=O)N1C(=O)C(CC)(CC)[C@@H]1Oc1ccc(C(=O)N(C)CCN(CC)CC)cc1)c1ccc(Cl)cc1 [Compound 300],1.28e+06,
CCC[C@@H](NC(=O)N1C(=O)C(CC)(CC)[C@@H]1Oc1ccc(C(=O)N(C)CCN(C(C)C)C(C)C)cc1)c1ccc(Cl)cc1 [Compound 301],1.5e+06,
CCC[C@@H](NC(=O)N1C(=O)C(CC)(CC)[C@@H]1Oc1ccc(C(=O)N(C)CCN(C)Cc2ccccc2)cc1)c1ccc(Cl)cc1 [Compound 302],1.46e+06,
"CCC[C@@H](NC(=O)N1C(=O)C(CC)(CC)[C@@H]1Oc1cc(C)c(C(=O)OCCN(CC)CC)c(C)c1)c1ccc(C)cc1 [Compound 305, 2-(diethylamino)ethyl [S-(R*,S*)]-4-[[3,3-diethyl-1-[[[1-(4-methylphenyl)butyl]amino]carbonyl]-4-oxo-2-azetidinyl]oxy]-2,6-dimethyl-benzoate]",749000,
"CCC[C@@H](NC(=O)N1C(=O)C(CC)(CC)[C@@H]1Oc1cc(C)c(C(=O)OCCN(C(C)C)C(C)C)c(C)c1)c1ccc(C)cc1 [Compound 306, 2-[bis(1-methylethyl)amino]-ethyl [S-(R*,S*)]-4-[[3,3-diethyl-1-[[[1-(4-methylphenyl)butyl]amino]carbonyl]-4-oxo-2-azetidinyl]oxy]-2,6-dimethyl-benzoate]",612000,
CCC[C@@H](NC(=O)N1C(=O)C(CC)(CC)[C@@H]1Oc1cc(C)c(C(=O)N(C)CCN(C)C)c(C)c1)c1ccc(C)cc1 [Compound 307],352000,
CCC[C@@H](NC(=O)N1C(=O)C(CC)(CC)[C@@H]1Oc1cc(C)c(C(=O)N(C)CCN(CC)CC)c(C)c1)c1ccc(C)cc1 [Compound 308],377000,
CCC[C@@H](NC(=O)N1C(=O)C(CC)(CC)[C@@H]1Oc1cc(C)c(C(=O)N(CC)CCN(C)C)c(C)c1)c1ccc(C)cc1 [Compound 309],398000,
CCC[C@@H](NC(=O)N1C(=O)C(CC)(CC)[C@@H]1Oc1ccc(C(=O)N(C)CCN(C)C)c(O)c1)c1ccc(C)cc1 [Compound 310],838000,
"[S-(R*,S*)]-2-[4-[[(4-Methyl)piperazin-1-yl]carbonyl] phenoxy]-((3,3-diethyl-N-[1-(methylphenyl)butyl]-4-oxo-1-azetidinecarboxamide [Compound 242]",,"1,700,000 per mole per second"
